Test results: paper PMC8113213, “Physiologically based kinetic modelling based prediction of in vivo rat and human acetylcholinesterase (AChE) inhibition upon exposure to diazinon” (Archives of Toxicology, 2021)
Read-outs that look alike come from different tables or passages of the source. Marks after values point to notes of the source that are not given here.

Legend:
rat RBC AChE = target: T1, rat RBC AChE (Rattus norvegicus, UniProt P37136); assay: In vitro AChE inhibition assay (Ellman) with extracted rat RBC AChE; assay type: biochemical
T1 construct: the membrane fraction (containing AChE) was sedimented by centrifugation at 20,000g for 40 min; tissue BioIVT; host or cells: rat red blood cell membranes (from whole blood)
Description: However, since recombinant rat AChE was not commercially available, extracted rat RBC AChE was used. […] The concentration of DTNB was calculated based on the concentration ratio (ATC/DTNB) of 2 (Stern et al. [2014]). […] To initiate the inhibition reaction, 1 µl rhAChE or rat AChE (final concentration 0.6 mU/ml) was added to the incubation. The total incubation volume was 50 µl. After 15 min incubation at 37℃, 150 µl reaction reagents (mixture of ATC at a final concentration of 150 µM and DTNB at a final concentration of 75 µM) were added into each well. The final total volume of each well was 200 µl. Subsequently, the 96-well plate was measured continuously for 10 min at absorbance 412 nm at 37℃ to quantify the remaining AChE activity.
The rhAChE and rat AChE activity were expressed as the remaining AChE activity relative to solvent control (100% activity) and positive control (0% activity) based on Eq. (2):2 AChEactivity\%=A412t10-t0testcompound-A412t10-t0positivecontrol/A412t10-t0solventcontrol-A412t10-t0positivecontrol×100\% , where the A412(t10 − t0)test compound is the change in the absorbance at A412 nm between 0 and 10 min for the test compound, the A412(t10 − t0)positive control is the change in the absorbance at A412 nm between 0 and 10 min for the CPO sample, and the A412(t10 − t0)solvent control is the change in the absorbance at A412nm between 0 and 10 min for the 0.2% ethanol sample.

RBC AChE [1] = assay: TEF-coded PBK model-based reverse dosimetry, predicted in vivo RBC AChE inhibition, rat; details: for Predicted BMDL10 for rat pups: adult rat predicted BMDL10 corrected by factor 2 (Padilla et al. 2004)
From the text: The PBK model for DZN was developed based on the model from Poet et al. ([2004]) with some modifications for both rat and human. The model contains a submodel for the metabolite DZO and was defined to include compartments for rapidly perfused tissue, slowly perfused tissue, liver, fat and blood for both the parent compound DZN and its metabolite DZO. The model also contains a compartment to describe the urinary elimination of the metabolites IMHP and DAP (sum of DEP and DETP). In the currently developed model, oral exposure was included since we aimed at defining a POD for risk assessment of exposure via food and drinking water, and intravenous (IV) exposure was included for model evaluation. The fractional absorption (fa) was set equal to literature reported values, being 0.8 in rat (Poet et al. [2004]) and 0.66 in human (Garfitt et al. [2002]) and applied to the overall dose. The absorption of DZN from the stomach into the liver was described using a two-compartment gastrointestinal tract model as reported by Poet et al. ([2004]), with a first-order rate constant for absorption of DZN from the stomach into the liver (KaS) of 0.1 /h for rat and 0.32/h for human (Poet et al. [2004]), a first-order rate constant for transfer of DZN from the stomach into the intestine (KsI) of 0.48/h for both rat and human, a first-order rate constant for absorption DZN from the intestine into the liver (KaI) of 0.59/h for both rat and human, (Poet et al. [2004]), and Ke values for the elimination of IMHP or DAP (sum of DEP and DETP) into the urine amounting to Ke IMHP = 0.29/h, Ke DEP = 0.29 /h and Ke DETP = 0.29/h for rat (Poet et al. [2004]), and Ke IMHP = 12/h, Ke DEP = 12 /h and Ke DETP = 12/h for human (Garfitt et al. [2002]; Poet et al. [2004]).
The physiological parameters for rat and human were obtained from Brown et al. ([1997]) as well as Gearhart et al. ([1990]), and are summarised in Table 1. […] The kinetic parameters for biotransformation of DZN in rat and human were obtained by conducting in vitro liver microsomal/plasma incubations as described in the section “In vitro metabolic incubations for deriving kinetic parameters”. […] The first-pass metabolism of DZN by the intestine was not taken into account in the current model because the metabolic conversion in the intestine derived from the conversion in incubations with intestinal microsomes upon scaling to the whole organ, appeared less than 5% of that obtained in a similar way for the liver (data not shown). […] The Km values determined in vitro were assumed to be equal to in vivo Km values. […]

RBC AChE [2] = assay: TEF-coded PBK model-based reverse dosimetry, predicted in vivo RBC AChE inhibition, human
From the text: The PBK model for DZN was developed based on the model from Poet et al. ([2004]) with some modifications for both rat and human. The model contains a submodel for the metabolite DZO and was defined to include compartments for rapidly perfused tissue, slowly perfused tissue, liver, fat and blood for both the parent compound DZN and its metabolite DZO. The model also contains a compartment to describe the urinary elimination of the metabolites IMHP and DAP (sum of DEP and DETP). In the currently developed model, oral exposure was included since we aimed at defining a POD for risk assessment of exposure via food and drinking water, and intravenous (IV) exposure was included for model evaluation. The fractional absorption (fa) was set equal to literature reported values, being 0.8 in rat (Poet et al. [2004]) and 0.66 in human (Garfitt et al. [2002]) and applied to the overall dose. […]
The physiological parameters for rat and human were obtained from Brown et al. ([1997]) as well as Gearhart et al. ([1990]), and are summarised in Table 1. […] The Km values determined in vitro were assumed to be equal to in vivo Km values. […]

brain AChE = details: cited from earlier work; for inhibition of brain AChE: ref Padilla et al. 2004
[3] = human, cited from earlier work
[4] = rat; ref JMPR 2016; cited from earlier work
[5] = human; ref Poklis et al. 1980; cited from earlier work
CYP450 = details: ref Kappers et al. 2001; cited from earlier work

T1 sequence (P37136 other isoform, or with tags, fused parts or gaps): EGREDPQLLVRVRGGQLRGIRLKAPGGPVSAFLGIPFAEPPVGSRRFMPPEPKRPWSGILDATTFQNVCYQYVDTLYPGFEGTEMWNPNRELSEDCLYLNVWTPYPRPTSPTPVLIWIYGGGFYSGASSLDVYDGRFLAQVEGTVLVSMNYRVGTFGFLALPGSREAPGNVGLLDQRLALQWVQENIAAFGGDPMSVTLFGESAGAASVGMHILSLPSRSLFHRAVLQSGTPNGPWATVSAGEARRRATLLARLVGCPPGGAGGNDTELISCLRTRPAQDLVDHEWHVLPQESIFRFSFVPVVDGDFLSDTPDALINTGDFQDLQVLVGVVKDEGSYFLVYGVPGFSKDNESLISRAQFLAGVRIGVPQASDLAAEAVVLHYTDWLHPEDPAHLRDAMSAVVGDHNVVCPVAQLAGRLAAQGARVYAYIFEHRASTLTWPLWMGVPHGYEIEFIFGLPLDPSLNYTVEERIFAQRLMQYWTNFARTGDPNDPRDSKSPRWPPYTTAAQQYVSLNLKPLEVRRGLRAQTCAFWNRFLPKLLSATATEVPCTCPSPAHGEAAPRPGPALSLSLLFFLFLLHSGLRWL

Compound: CCOP(=S)(OCC)Oc1cc(C)nc(C(C)C)n1 [DZN, O,O-diethyl O-2-isopropyl-6-methylpyrimidin-4-yl phosphorothioate]
- IC50 (rat RBC AChE; rat RBC AChE, 15 min incubation at 37℃): 14.7 µM
- toxic equivalency factor (TEF) (rat RBC AChE; rat, IC50 DZO/IC50 DZN, TEF of DZO set at 1.0): 0.00351
- corrected POD (rat pups) higher than POD used by the EPA (RBC AChE [1]): 2.1 fold
- predicted rat BMDL10 higher than reported BMDL10 for inhibition of RBC AChE (RBC AChE [1]): 2.6 fold
- Predicted BMDL10 for rat pups (RBC AChE [1]): 6.3 mg/kg bw
- Predicted BMDL10 for rat pups (RBC AChE [1]; listed as Diazinon): 6.3^a mg/kg bw
- predicted BMDL10 for human lower than that for rat (RBC AChE [2]): 6 fold
- inhibition of brain AChE (brain AChE; adult rats, oral dose of 75 mg/kg bw): 38%
- BMDL10 for inhibition of brain AChE (brain AChE; male adult rats, oral DZN, ref USEPA 2016): 12.175 mg/kg bw/day
- inhibition of brain AChE (brain AChE; pups at postnatal day 17, oral dose of 75 mg/kg bw): 75%
- fractional absorption (fa) ([3]; oral, ref Garfitt et al. 2002): 0.66
- first-order rate constant for absorption from the intestine into the liver (KaI) ([3]; ref Poet et al. 2004): 0.59 h⁻¹
- first-order rate constant for absorption from the stomach into the liver (KaS) ([3]; ref Poet et al. 2004): 0.32 h⁻¹
- first-order rate constant for transfer from the stomach into the intestine (KsI) ([3]; ref Poet et al. 2004): 0.48 h⁻¹
- toxic dose level reported [4]: 300 mg/kg bw
- toxic dose level reported [5]: 293 mg/kg bw
- difference in DZO formation from DZN between 15 human liver samples (CYP450): 6- to 59 fold
